The values that follow come from patent US20040014639A1, “Product and method for control of obesity” (priority 2000, published 2004).

Entries after “also recorded” stand apart in the source; their conditions may differ.

The subject of experiment [1] is adipocytes. The experiment is described as follows: sensitisation of adipocytes to beta 3 agonist: 4 hour pre-incubation, then BRL 37344 for a further hour, lipolysis. It counts as cell-based, mouse. The settings on record: for lipolytic effect of the beta 3 agonist after pre-incubation: 4 hour pre-incubation at varying concentrations, then 50 nanomolar BRL 37344 for a further hour. The protocol:
Referring now to FIG. 2, an experiment was performed to determine whether hGH (FIG. 2A) or AOD 9604 (FIG. 2B) sensitises the adipocytes to the actions of the beta 3 agonists. First, the adipocytes were incubated with hGH or AOD 9604 at varying concentrations for four hours. The cells were then further incubated with a half-maximal concentration of BRL 37344 of 50 nanomolar for a further hour.

The test system of experiment [2] is 3T3-F442 cells. The experiment is described as follows: in vitro lipolysis (glycerol release), 1 hour incubation. Format: cell-based, mouse. To be noted: for shape of lipolytic dose response: 1 hour, varying concentrations, agent alone. The method, then:
Referring now to FIG. 1, 3T3-F442 cells (an immortal mouse adipocyte cell line) were incubated for 1 hour with varying concentrations of the rodent beta 3 agonist BRL 37344. […] In a third sample, AOD 9604 and BRL 37344 were co-administered with varying concentrations of AOD 9604, together with the maximal concentration of 1 μM of the BRL 37344.

The test system of experiment [3] is beta 3 messenger RNA. In words: beta 3 messenger RNA expression in adipocytes after four-hour incubation (PCR/RT-PCR, normalised to β-actin). It counts as cell-based, mouse. To be noted: 4 hour incubation. The method, then: Referring now to FIG. 3, the effect of the four-hour incubation of the adipocytes with hGH (FIG. 3A) or AOD 9604 (FIG. 3B) at two concentrations on expression of beta 3 messenger RNA was assessed using PCR/RT-PCR analysis of the content of beta 3 messenger RNA, using β-actin to normalise the data.

Experiment [4] relates to beta 3 messenger RNA. In words: beta 3 messenger RNA expression after chronic treatment of ob/ob mice. Format: in vivo. To be noted: versus control ob/ob mice.
Experiment [5] has as its system ob/ob mice. In words: fat mass after chronic treatment of ob/ob mice. Format: in vivo. The source says:
It is believed that the obesity reducing effect of AOD9604 is at least in part a result of this sensitisation to the lipolytic affects of endogenous catecholamines (ie. epinephrine). Accordingly, chronic co-administration of AOD9604 and a beta 3 agonist will enhance the anti-obesity action of either agent administered alone.

Experiment [6] addresses beta 3 adrenergic receptor (Mus musculus, UniProt P25962). The experiment is described as follows: agonism at the beta 3 adrenergic receptor.
Experiment [7] concerns C57Bl/6J (Ob/Ob) mouse. The settings on record: by injection; cited from earlier work.

Sequence of beta 3 adrenergic receptor (P25962 whole entry): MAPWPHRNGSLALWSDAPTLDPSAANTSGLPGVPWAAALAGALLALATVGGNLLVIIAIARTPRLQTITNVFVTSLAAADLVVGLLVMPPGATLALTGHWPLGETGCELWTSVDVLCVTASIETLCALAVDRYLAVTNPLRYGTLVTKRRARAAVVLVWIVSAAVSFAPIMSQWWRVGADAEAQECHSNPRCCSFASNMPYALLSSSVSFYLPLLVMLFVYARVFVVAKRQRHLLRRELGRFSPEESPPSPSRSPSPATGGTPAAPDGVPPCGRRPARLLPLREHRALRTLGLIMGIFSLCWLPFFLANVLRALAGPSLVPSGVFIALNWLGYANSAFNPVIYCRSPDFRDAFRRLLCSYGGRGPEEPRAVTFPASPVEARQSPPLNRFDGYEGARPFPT

For `C[C@H](Cc1ccc(OCC(=O)O)cc1)NC[C@H](O)c1cccc(Cl)c1` [BRL 37344], in experiment [1] (adipocytes, read-out: half-maximal concentration (lipolysis)), the EC50 was 50 nM. The “concentration giving maximal lipolytic effect” value in experiment [2] (1 hour incubation) worked out at 1 µM. For the same molecule, the “maximal effect, glycerol released” value in experiment [2] (1 hour incubation, at 1 μM) is listed as “approximately 6 μM per milligram protein”. Also, the “shape of lipolytic dose response” value in experiment [2] is on record as “sigmoid-shaped dose response”.
With Tyr-hGH 177-191 [AOD9604], the “lipolytic effect of the beta 3 agonist after pre-incubation” value in experiment [1] is listed as “synergistic effect; also recorded: enhanced”. Further, in experiment [3], the “expression of beta 3 messenger RNA” value is listed as “increase”. Further, the “shape of lipolytic dose response” value in experiment [2] was “bell-shaped acute lipolytic response”. Moreover, in experiment [4] (0.25 mg/kg/day for 14 days), the “beta 3 messenger RNA in brown adipocytes” value is “increase” and the “beta 3 messenger RNA in white adipocytes” value was “increase”. Moreover, the “fat mass of the treated animals” value in experiment [5] is on record as “significant reduction”. The “agonist activity at the beta 3 adrenergic receptor” value in experiment [6] is listed as “not an agonist”.
Consider “hGH 177-191: synthetic peptide corresponding to amino acid residues 177-191 of the human growth hormone sequence (LRIVQCRSVEGSCGF; UniProt P01241 203-217, looked up, fragment)”, for which, in experiment [7], the adipose tissue mass result was “reduce” and the body weight gain entry is “reduce”.
For the molecule hGH: human growth hormone, the “lipolytic effect of the beta 3 agonist after pre-incubation” value in experiment [1] is recorded as “synergistic effect; also recorded: enhanced”. In experiment [4] (1.0 mg/kg/day for 14 days), the “beta 3 messenger RNA in brown adipocytes” value is “increase” and the “beta 3 messenger RNA in white adipocytes” value was “increase”.
